Reference: ChEMBL document CHEMBL4011615, “Past, Current, and Future Developments of Therapeutic Agents for Treatment of Chronic Hepatitis B Virus Infection” (J Med Chem, 2017)
Blank lines part the entries; values can stand above or below the compound they belong to.

Legend:
Hepatitis B virus [1] = assay: Inhibition of HBV C150-Bodipy labeled capsid (1 to 150 residues) C49A/C61A/C107A mutant expressed in Escherichia coli assessed as reduction in NaCl-induced capsid assembly at 10 uM preincubated for 15 mins followed by NaCl addition measured after 1 hr by fluorescence quenching assay relative to control
Hepatitis B virus [2] = assay: Antiviral activity against HBV infected in human HepG2(2.2.15) cells assessed as inhibition of extracellular viral DNA level; assay type: functional, cell-based
Hepatitis B virus [3] = assay: Antiviral activity against HBV infected in human HepAD38 cells; assay type: functional, cell-based
Hepatitis B virus [4] = assay: Antiviral activity against HBV infected in human HepG2(2.2.15) cells assessed as inhibition of viral DNA level after 8 days by RT-PCR method; assay type: functional, cell-based; details: HepG2 2.2.15, 192 h
[5] = Cytotoxicity against human HepG2(2.2.15) cells after 24 hrs by MTS assay; assay type: cell-based
Hepatitis B virus [6] = assay: Antiviral activity against HBV infected in human HepG2(2.2.15) cells assessed as reduction in intracellular viral capsid level at antiviral IC50 by immunoblot method; assay type: functional
Hepatitis B virus [7] = assay: Antiviral activity against HBV infected in human HepG2(2.2.15) cells assessed as inhibition of viral DNA level after 24 hrs by RT-PCR method; assay type: functional, cell-based; details: HepG2 2.2.15, 24 h
Hepatitis B virus [8] = assay: Antiviral activity against HBV infected in human HepG2(2.2.15) cells assessed as inhibition of viral DNA level; assay type: functional, cell-based
Hepatitis B virus [9] = assay: Antiviral activity against HBV infected in human HepG2(2.2.15) cells assessed as inhibition of viral DNA level after 6 days by Southern blot analysis; assay type: functional, cell-based; details: HepG2 2.2.15, 144 h
[10] = Cytotoxicity against human HepG2(2.2.15) cells assessed as reduction in cell viability after 3 days by methylene blue assay; assay type: cell-based
Hepatitis B virus [11] = assay: Antiviral activity against HBV infected in human HepG2(2.2.15) cells assessed as inhibition of viral RNA level; assay type: functional, cell-based
Hepatitis B virus [12] = assay: Antiviral activity against HBV infected in human HepaRG cells assessed as reduction in viral infection after 16 hrs
Hepatitis B virus [13] = assay: Antiviral activity against HBV infected in human HuS-E/2 cells assessed as inhibition of viral mRNA level at 50 uM treated for 20 hrs measured after 7 days by RT-PCR method relative to control; assay type: functional
Hepatitis B virus [14] = assay: Antiviral activity against HBV infected in human HepG2.N9 cells assessed as reduction in HBeAg level measured on day 8 post infection; assay type: functional, cell-based; details: 192 h

SMILES: O=C(Nc1ccc(F)c(Cl)c1)N1CCCN(c2c(Cl)cncc2Cl)CC1
inhibition (Hepatitis B virus [1]): > 50%

SMILES: CC(=O)Oc1ccccc1C(=O)Nc1ncc([N+](=O)[O-])s1 [NITAZOXANIDE]
IC50 (Hepatitis B virus [2]): 0.12 µM

SMILES: COc1ccccc1/C(Br)=C(/NC(=O)c1ccc([N+](=O)[O-])cc1)C(=O)N1CCCCC1
IC50 (Hepatitis B virus [3]): 0.13 µM

SMILES: O=C(CNC(=O)c1ccc(F)cc1)Nc1ccc(Cl)nc1Cl
CC50 at 24 h [5]: 144 µM
inhibition (INH) (Hepatitis B virus [6]): 51%
IC50 (Hepatitis B virus [7]): 0.88 µM

SMILES: O=c1cc(-c2ccc(O)c(-c3c(O)cc4oc(-c5ccc(O)cc5)cc(=O)c4c3O)c2)oc2cc(O)cc(O)c12 [ROBUSTAFLAVONE]
IC50 (Hepatitis B virus [8]): 0.25 µM

SMILES: O=C1OCc2c1cc1ccc3c(c1c2-c1ccc2c(c1)OCO2)OCO3 [HELIOXANTHIN]
IC50 (Hepatitis B virus [9]): 1 µM
CC50 at 72 h [10]: 6 µM

SMILES: CC(=O)[C@]1(O)CC[C@@]2(O)[C@]1(C)[C@H](OC(=O)/C=C(\C)C(C)C)C[C@@H]1[C@@]3(C)CC[C@H](O)CC3=CC[C@]12O [CAUDATIN]
IC50 (Hepatitis B virus [8]): 40.6 µM

SMILES: C/C=C/C[C@@H](C)[C@@H](O)[C@H]1C(=O)N[C@@H](CC)C(=O)N(C)CC(=O)N(C)[C@@H](CC(C)C)C(=O)N[C@@H](C(C)C)C(=O)N(C)[C@@H](CC(C)C)C(=O)N[C@@H](C)C(=O)N[C@H](C)C(=O)N(C)[C@@H](CC(C)C)C(=O)N(C)[C@@H](CC(C)C)C(=O)N(C)[C@@H](C(C)C)C(=O)N1C [CYCLOSPORINE]
IC50 (Hepatitis B virus [12]): < 0.2 µM

SMILES: O=C(Nc1ncc([N+](=O)[O-])s1)c1ccccc1O [TIZOXANIDE]
IC50 (Hepatitis B virus [2]): 0.15 µM

SMILES: O=c1[nH][nH]c(=O)c2c(-c3ccc4c(c3)OCO4)c3c4c(ccc3cc12)OCO4
CC50 at 72 h [10]: 9 µM

SMILES: O=C(O[C@@H]1Cc2c(O)cc(O)cc2O[C@@H]1c1cc(O)c(O)c(O)c1)c1cc(O)c(O)c(O)c1 [EPIGALOCATECHIN GALLATE]
inhibition at 50 µM (Hepatitis B virus [13]): > 80%

SMILES: CCCCC1=NC2(CCCC2)C(=O)N1Cc1ccc(-c2ccccc2-c2nnn[nH]2)cc1 [IRBESARTAN]
IC50 (Hepatitis B virus [14]): 3.3 µM

Continued, values first:

IC50 (Hepatitis B virus [4]): 1.5 µM
SMILES: CC(=O)Nc1ccc(-c2cc(C)c(=O)n(Cc3ccc(Cl)cc3)n2)cc1

IC50 (Hepatitis B virus [8]): 0.011 µM
SMILES: COC(=O)C1=C(CN2CCOCC2)NC(c2nccs2)=N[C@H]1c1ccc(F)cc1Br

IC50 (Hepatitis B virus [11]): 1.33 µM
SMILES: CC(C)Cc1nc(-c2nccs2)sc1C(=O)NCc1ccc(F)cc1

IC50 (Hepatitis B virus [8]): 0.012 µM
SMILES: CCOC(=O)C1=C(CN2CCOCC2)NC(c2nccs2)=NC1c1ccc(F)cc1Br (configuration not stated)

IC50 (Hepatitis B virus [4]): 0.14 µM
SMILES: CCOC(=O)c1sc(-c2nc(C)cs2)nc1CC(C)C

IC50 (Hepatitis B virus [8]): 0.28 µM
SMILES: CCOC(=O)C1=C(C)NC(c2c(F)cc(F)cc2F)=N[C@H]1c1ccc(F)cc1Cl

IC50 (Hepatitis B virus [8]): 0.15 µM
SMILES: CCOC(=O)C1=C(C)NC(c2ncccc2F)=N[C@@H]1c1ccc(F)cc1Cl
